According to US20090215805A1, “4-Heteroaryl Pyrimidine Derivatives and use thereof as Protein Kinase Inhibitors” (Cyclacel Limited, priority 2005, published 2009):

Legend:
DM Aur A (Dm AK-A) = DM Aur A (Dm AK-A) (Drosophila melanogaster, UniProt Q9VGF9); experiment: Dm aurora A kinase assay (DM Aur A / Dm AK-A); type: biochemical; details: for Ki: in vitro kinase assay; for IC50: values without asterisk (DM aurora A)
Procedure: (§1) The compounds of the invention above were investigated for their ability to inhibit the enzymatic activity of various protein kinases. This was achieved by measurement of incorporation of radioactive phosphate from ATP into appropriate polypeptide substrates. Recombinant protein kinases and kinase complexes were produced or obtained commercially. Assays were performed using 96-well plates and appropriate assay buffers (typically 25 mM β-glycerophosphate, 20 mM MOPS, 5 mM EGTA, 1 mM DTT, 1 mM […], pH 7.4), into which were added 2-4 μg of active enzyme with appropriate substrates. The reactions were initiated by addition of Mg/ATP mix (15 mM MgCl2+100 μM ATP with 30-50 kBq per well of [γ-^32P]-ATP) and mixtures incubated as required at 30° C. Reactions were stopped on ice, followed by filtration through p81 filterplates or GF/C filterplates (Whatman Polyfiltronics, Kent, UK). After washing 3 times with 75 mM aq orthophosphoric acid, plates were dried, scintillant added and incorporated radioactivity measured in a scintillation counter (TopCount, Packard Instruments, Pangbourne, Berks, UK). Compounds for kinase assay were made up as 10 mM stocks in DMSO and diluted into 10% DMSO in assay buffer. Data was analysed using curve-fitting software (GraphPad Prism version 3.00 for Windows, GraphPad Software, San Diego Calif. USA) to determine IC50 values (concentration of test compound which inhibits kinase activity by 50%).

GSK3 (GSK-3β) = GSK3 (GSK-3β) (Oryctolagus cuniculus, UniProt A0A5F9DUX8); experiment: GSK-3 kinase assay; type: biochemical, rabbit; details: in vitro kinase assay
Chain of GSK3 (GSK-3β) (A0A5F9DUX8 entry or part of it): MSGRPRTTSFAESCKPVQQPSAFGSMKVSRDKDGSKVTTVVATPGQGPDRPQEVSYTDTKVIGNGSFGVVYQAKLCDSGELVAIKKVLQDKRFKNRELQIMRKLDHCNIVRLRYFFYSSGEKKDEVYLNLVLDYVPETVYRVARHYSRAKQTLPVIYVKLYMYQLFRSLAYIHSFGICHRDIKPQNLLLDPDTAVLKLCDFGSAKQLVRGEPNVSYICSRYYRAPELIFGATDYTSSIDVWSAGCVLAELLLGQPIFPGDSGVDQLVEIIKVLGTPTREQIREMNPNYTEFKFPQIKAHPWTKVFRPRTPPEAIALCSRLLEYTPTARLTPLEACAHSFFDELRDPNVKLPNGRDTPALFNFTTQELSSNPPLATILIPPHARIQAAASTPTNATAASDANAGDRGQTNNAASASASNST
Procedure: GSK-3 was obtained from New England Biolabs (UK) Ltd., Hitchin, Herts. The recombinant enzyme was isolated from a strain of E. coli that carries a clone expressing GSK-3β derived from a rabbit skeletal muscle cDNA library [Wang, Q. M.; Fiol, C. J.; DePaoli-Roach, A. A.; Roach, P. J. J. Biol. Chem., 1994, 269, 14566]. Inhibition of GSK-3 function was assessed by measurement of phosphorylation of CREB phosphopeptide KRREILSRRPphosphoSYR in the presence of test compounds. Using a 96-well assay format, GSK3 (7.5 U) was incubated for 30 min at 30° C. in a total volume of 25 μL in 20 mM MOPS pH 7.2, 25 mM β-glycerophosphate, 5 mM EGTA, 1 mM DTT, 1 mM […], 40 μM CREB peptide, 15 mM MgCl2 and 100 μM ATP (containing 0.25 μCi [γ-^32P]-ATP) in the presence of varying concentrations of test compound. The samples were transferred to 96-well p81 filter plates (Whatman Polyfiltronics, Kent, UK), and the plates were washed 4 times with 200 μL/well of 75 mM aq orthophosphoric acid. Scintillation liquid (50 μL) was added to each well, and incorporated radioactivity for each sample was determined using a scintillation counter (TopCount, Packard Instruments, Pangboume, Berks, UK).

CDK2/E = CDK2/E (Homo sapiens, UniProt P24941); experiment: CDK2/E in vitro kinase assay; type: biochemical
Procedure: as §1

Human aurora kinase A = target: T1, Human aurora kinase A (Homo sapiens, UniProt O14965); experiment: Aurora-A (human) kinase assay; type: biochemical; details: values marked *: Human aurora kinase A; read-out: Aur A IC50 (*Human aurora kinase A)
T1 construct: purchased Upstate, Dundee, UK
T1 sequence (O14965 1-403): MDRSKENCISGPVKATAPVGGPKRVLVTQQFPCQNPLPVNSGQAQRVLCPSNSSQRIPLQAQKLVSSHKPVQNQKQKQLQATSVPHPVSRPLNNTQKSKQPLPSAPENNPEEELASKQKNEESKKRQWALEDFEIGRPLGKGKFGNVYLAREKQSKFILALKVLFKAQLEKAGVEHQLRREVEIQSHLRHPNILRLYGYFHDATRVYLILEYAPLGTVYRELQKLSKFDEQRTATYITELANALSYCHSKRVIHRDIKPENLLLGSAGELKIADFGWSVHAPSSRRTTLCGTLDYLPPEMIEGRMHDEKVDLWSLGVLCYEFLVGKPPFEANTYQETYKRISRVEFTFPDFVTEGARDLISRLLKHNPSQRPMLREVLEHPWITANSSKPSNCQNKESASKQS
Procedure: This was achieved by measurement of incorporation of radioactive phosphate from ATP into Kemptide substrate (LRRASLG), upon phosphorylation by commercially obtained aurora-A (human, Upstate, Dundee, UK). Assays were performed using 96-well plates and appropriate assay buffers (20 mM Tris, 25 mM β-glycerophosphate, 5 mM EGTA, 1 mM DTT, 1 mM sodium vanadate, pH 7.5), into which were added 2-5 ng of active enzyme with 500 μM substrate (Kemptide). The reactions were initiated by addition of MgATP mix (15 mM MgCl2+100 μM ATP with 15-25 kBq per well of [γ-^32P]-ATP) and mixtures incubated for 30 min at 30° C. Reactions were stopped by addition of an equal volume of 75 mM aq orthophosphoric acid, followed by filtration through p81 filterplates (Whatman Polyfiltronics, Kent, UK). After washing 4 times with 75 mM aq orthophosphoric acid, plates were dried, scintillant added and incorporated radioactivity measured in a scintillation counter (TopCount, Packard Instruments, Pangbourne, Berks, UK). Compounds for kinase assay were made up as 10 mM stocks in DMSO and diluted into 10% DMSO in assay buffer. Data was analysed using curve-fitting software (XLfit version 4.0.2, IDBS, Guildford, Surrey, UK) to determine IC50 values (concentration of test compound which inhibits kinase activity by 50%).

Chain of DM Aur A (Dm AK-A) (Q9VGF9 entry or part of it): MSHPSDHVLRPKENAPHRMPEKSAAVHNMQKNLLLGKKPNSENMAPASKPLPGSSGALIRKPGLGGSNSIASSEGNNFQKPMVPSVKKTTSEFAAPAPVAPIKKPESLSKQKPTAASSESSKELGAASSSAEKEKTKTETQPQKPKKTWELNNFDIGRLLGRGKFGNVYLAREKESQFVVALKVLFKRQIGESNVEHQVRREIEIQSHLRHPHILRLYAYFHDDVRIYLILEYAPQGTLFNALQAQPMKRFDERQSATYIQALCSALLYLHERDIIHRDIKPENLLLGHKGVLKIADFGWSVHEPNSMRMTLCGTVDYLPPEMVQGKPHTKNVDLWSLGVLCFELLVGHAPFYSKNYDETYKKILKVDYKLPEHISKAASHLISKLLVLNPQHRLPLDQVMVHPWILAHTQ

| Ki (DM Aur A (Dm AK-A)) [µM] | IC50 (DM Aur A (Dm AK-A)) [µM] | Ki (GSK3 (GSK-3β)) [µM] | Ki (CDK2/E) [µM] | melting point [°C] | IC50 (Human aurora kinase A) [µM] | Structure (SMILES) |
| --- | --- | --- | --- | --- | --- | --- |
| > 10 | ≥ 10 | 0.601 |  |  |  | Cc1c[nH]c(C)c1-c1ccnc(Nc2ccc(C#N)cc2)n1 [Compound 1] |
| > 10 | ≥ 10 | 3.69 |  |  |  | Cc1c[nH]c(C)c1-c1ccnc(Nc2cccc(C#N)c2)n1 [Compound 2] |
| 0.008 | 0.072 |  | 1.81 |  |  | Cc1c[nH]c(C)c1-c1ccnc(Nc2ccc(N3CCOCC3)cc2)n1 [Compound 4] |
| 0.423 |  |  |  | 123.1 to 124.2 |  | CCOC(=O)c1[nH]c(C)c(-c2ccnc(Nc3cccc(O)c3)n2)c1-c1ccccc1 [Compound 7] |
| > 10 | ≥ 10 |  |  | 200 to 203 |  | CCOC(=O)c1[nH]c(C)c(-c2ccnc(Nc3cccc(F)c3)n2)c1-c1ccccc1 [Compound 8] |
| > 10 | ≥ 10 |  |  | 227 to 230 |  | CCOC(=O)c1[nH]c(C)c(-c2ccnc(Nc3ccc(C(F)(F)F)cc3)n2)c1-c1ccccc1 [Compound 10] |
| 0.278 | 0.712 |  |  | 202 to 205 |  | CCOC(=O)c1[nH]c(C)c(-c2ccnc(Nc3ccc(O)c([N+](=O)[O-])c3)n2)c1-c1ccccc1 [Compound 11] |
| 0.335 | 0.859 | 0.208 |  | 201 to 203 |  | Cc1[nH]cc(-c2ccccc2)c1-c1ccnc(Nc2cccc([N+](=O)[O-])c2)n1 [Compound 13] |
| 0.602 | 1.54 | 0.133 |  | 194.1 to 195.6 |  | Cc1[nH]cc(-c2ccccc2)c1-c1ccnc(Nc2ccc(O)cc2)n1 [Compound 15] |
|  |  | 0.045 |  | 196.6 to 198.1 |  | Cc1[nH]cc(-c2ccccc2)c1-c1ccnc(Nc2ccc(F)cc2)n1 [Compound 16] |
| 0.04 | 0.102 | 3.27 | 0.033 | 88.3 to 92.6 |  | Cc1[nH]c(CN(C)C)c(C)c1-c1ccnc(Nc2cccc([N+](=O)[O-])c2)n1 [Compound 17] |
|  |  | 0.011 | 0.538 |  |  | Cc1c(-c2ccnc(Nc3ccc(N(C)C)cc3)n2)c(C)n(C)c1C#N [Compound 20] |
|  |  | 0.127 | 0.574 |  |  | Cc1[nH]c(C#N)c(C)c1-c1ccnc(Nc2ccc(N3CCOCC3)cc2)n1 [Compound 24] |
|  |  | 0.167 | 0.861 |  |  | COc1ccc(Nc2nccc(-c3c(C)c[nH]c3C)n2)cn1 [Compound 26] |
| > 10 | ≥ 10 | 0.375 | > 10 |  |  | Cc1ccc([N+](=O)[O-])cc1Nc1nccc(-c2c(C)[nH]c(C#N)c2C)n1 [Compound 27] |
| 2.52 | 6.47 | 0.731 | > 10 |  |  | COc1ccc(C)c(Nc2nccc(-c3c(C)[nH]c(C#N)c3C)n2)c1 [Compound 29] |
| 0.049 | 0.125 | 0.053 | 0.119 |  |  | CNc1ccc(Nc2nccc(-c3c(C)[nH]c(C#N)c3C)n2)cc1C(F)(F)F [Compound 31] |
| 0.666 | 1.7 | 0.007 |  |  |  | Cc1cc(Nc2nccc(-c3c(C)[nH]c(C#N)c3C)n2)cnc1Cl [Compound 33] |
| 1.3 | 3.32 | 0.005 | 0.876 |  |  | Cc1[nH]c(C#N)c(C)c1-c1ccnc(Nc2cccc(S(=O)(=O)NC(C)C)c2)n1 [Compound 34] |
| 0.307 | 0.786 | 0.014 | 0.012 |  |  | CCN(CC)CCNS(=O)(=O)c1ccc(Nc2nccc(-c3c(C)[nH]c(C#N)c3C)n2)cc1 [Compound 36] |

| Ki (DM Aur A (Dm AK-A)) [µM] | IC50 (DM Aur A (Dm AK-A)) [µM] | Ki (GSK3 (GSK-3β)) [µM] | Ki (CDK2/E) [µM] | melting point [°C] | IC50 (Human aurora kinase A) [µM] | Structure (SMILES) |
| --- | --- | --- | --- | --- | --- | --- |
| 0.333 | 0.853 |  |  |  |  | COCCOC(=O)c1[nH]c(C)c(-c2ccnc(Nc3ccc(N4CCOCC4)cc3)n2)c1-c1ccccc1 [Compound 37] |
| 0.069 | 0.177 |  | 0.31 |  |  | CC(=O)N1CCN(c2ccc(Nc3nccc(-c4c(C)[nH]c(C#N)c4C)n3)cn2)CC1 [Compound 38] |
| 0.091 | 0.234 |  |  |  |  | CC(=O)N1CCN(c2ccc(Nc3nccc(-c4c(C)c(C#N)n(C)c4C)n3)cn2)CC1 [Compound 39] |
| 0.108 | 0.276 |  |  |  |  | Cc1[nH]c(C#N)c(C)c1-c1ccnc(Nc2ccc(N3CCN(Cc4ccccc4)CC3)cc2)n1 [Compound 40] |
| 0.019 | 0.048 |  | 0.308 |  |  | CC(=O)N1CCN(c2ccc(Nc3nccc(-c4c(C)[nH]c(C#N)c4C)n3)cc2)CC1 [Compound 41] |
| 0.103 | 0.265 |  |  |  |  | CCOC(=O)c1[nH]c(C)c(-c2ccnc(Nc3ccc(N4CCOCC4)cc3)n2)c1C [Compound 43] |
|  |  |  |  |  | 0.261 | Cc1c[nH]c(C)c1-c1ccnc(Nc2ccc(N3CCOCC3)c(Cl)c2)n1 [Compound 44] |
|  |  |  |  |  | > 10 | Cc1c[nH]c(C)c1-c1ccnc(Nc2cc(Cl)c(N3CCOCC3)c(Cl)c2)n1 [Compound 45] |
|  |  |  |  |  | 3.03 | CCOC(=O)c1[nH]c(C)c(-c2ccnc(Nc3ccc(N4CCOCC4)c(Cl)c3)n2)c1C [Compound 46] |
|  |  |  |  |  | > 10 | CCOC(=O)c1[nH]c(C)c(-c2ccnc(Nc3cc(Cl)c(N4CCOCC4)c(Cl)c3)n2)c1C [Compound 47] |
|  |  |  |  |  | 0.222 | Cc1cn(C)c(C)c1-c1ccnc(Nc2ccc(N3CCOCC3)cc2)n1 [Compound 48] |
|  |  |  |  |  | 0.531 | Cc1cn(C)c(C)c1-c1ccnc(Nc2ccc(N3CCOCC3)c(Cl)c2)n1 [Compound 49] |
|  |  |  |  |  | > 10 | Cc1cc(N2CCOCC2)ccc1Nc1nccc(-c2c(C)c[nH]c2C)n1 [Compound 50] |
|  |  |  |  |  | 0.23 | Cc1c[nH]c(C)c1-c1ccnc(Nc2ccc(N3CC(C)OC(C)C3)cc2)n1 (centres unmarked) [Compound 51] |
|  |  |  | 0.759 |  | 0.168 | COc1cc(Nc2nccc(-c3c(C)[nH]c(C#N)c3C)n2)cc(OC)c1OC [Compound 52] |
|  |  |  | 1.12 |  | 0.125 | COc1cc(Nc2nccc(-c3c(C)c(C#N)n(C)c3C)n2)cc(OC)c1OC [Compound 53] |
|  |  |  | > 10 |  | 0.091 | CCOC(=O)c1[nH]c(C)c(-c2ccnc(Nc3ccc(N4CCOCC4)c(OC)c3)n2)c1C [Compound 54] |
|  |  |  | > 10 |  |  | COc1cc(Nc2nccc(-c3c(C)c[nH]c3C)n2)cc(OC)c1OC [Compound 56] |
|  |  |  | > 10 |  |  | COc1cc(Nc2nccc(-c3c(C)cn(C)c3C)n2)cc(OC)c1OC [Compound 57] |
|  |  |  | 4.7 |  |  | CCOC(=O)c1[nH]c(C)c(-c2ccnc(Nc3cc(OC)c(OC)c(OC)c3)n2)c1C [Compound 58] |
